Reference: US12410133B2, “Crystalline (r)-5-carbamoylpyridin-3-yl-2-methyl-4-(3-(trifluoromethoxy)benzyl)piperazine-1-carboxylate, compositions and methods of use thereof” (Celgene Corporation, priority 2018, dated 2025)
In brackets after ≈: the same amount, converted by molar mass.

What was measured:
Assay type in all cases: physicochemical
[1] = Interconversion study: competitive slurry of Form A and B; conditions: competitive slurry, H2O/PhMe, 1-3 weeks
Method: An interconversion study of crystal forms was performed. To understand the thermodynamic stability relationship between Form A and B, competitive slurry experiments were performed at RT and 50° C. in water and toluene. Prior to the study, Form A was used to saturate the corresponding solvent before it was filtered to obtain a near-saturated solution. Equal amounts of Form A and B samples were weighed and then mixed with the prepared near-saturated solution to form a new suspension, which was stirred magnetically (˜1000 rpm) at RT and 50° C.

[2] = Solubility of Form B in FaSSIF-v2 and FeSSIF-v2 at 37° C.; conditions: for Final Form: residual solid by XRPD, 2 hr
Method: Solubility of Form B was evaluated at 2 hr for Form B in FaSSIF-v2 and FeSSIF-v2 at 37° C. Approximately 10 to 20 mg of Form B sample was added in 0.8 mL of corresponding bio-relevant medium to form a suspension, followed by shaking at 500 rpm at 37° C. After 2 hr, the supernatants were isolated by centrifugation (7200 rpm for 5 min) followed by filtration through […] PTFE membrane and were tested by HPLC concentration and pH. The residual solids were characterized by XRPD. As summarized in Table 17, Form B converted to a new form (Form C) after solubility evaluation, while the solubility in FaSSIF-v2 and FeSSIF-v2 was measured to be 0.12 and 0.080 mg/mL, respectively.

[3] = Visual solubility assessment of Form B at room temperature; conditions: organic solvent or mixture, thermodynamic from solid
Method: Approximately 55 to 90 mg of Form B was added into a 4 mL glass vial. Solvent list in Table 18 was added into each of the vial. These samples were stirred for 3 minutes prior to visual solubility assessment.

| Compound | Final Form ([1]; 50° C.) | Final Form ([1]; RT) | solubility at 2 h ([2]; FaSSIF-v2, thermodynamic from solid, FaSSIF (pH 6.5), final pH 6.6) [mg/mL] | solubility at 2 h ([2]; FeSSIF-v2, thermodynamic from solid, FeSSIF (pH 5.8), final pH 5.9) [mg/mL] | Final Form ([2]; FaSSIF (pH 6.5)) | Final Form ([2]; FeSSIF (pH 5.8)) | solubility at 3 min ([3]; 2-Me THF, room temperature) [mg/mL] | solubility at 3 min ([3]; 2-Propanol, room temperature) [mg/mL] | solubility at 3 min ([3]; Acetone, room temperature) [mg/mL] | solubility at 3 min ([3]; Acetonitrile, room temperature) [mg/mL] | solubility at 3 min ([3]; Dichloromethane, room temperature) [mg/mL] | solubility at 3 min ([3]; EtOH, room temperature) [mg/mL] | solubility at 3 min ([3]; Ethyl Acetate, room temperature) [mg/mL] | solubility at 3 min ([3]; H2O/MeCN 1/3 (v/v) Aw~0.9, room temperature) [mg/mL] | solubility at 3 min ([3]; H2O/MeOH 1/3 (v/v) Aw~0.5, room temperature) [mg/mL] | solubility at 3 min ([3]; Isopropyl Acetate, room temperature) [mg/mL] | solubility at 3 min ([3]; Nitromethane, room temperature) [mg/mL] |
| --- | --- | --- | --- | --- | --- | --- | --- | --- | --- | --- | --- | --- | --- | --- | --- | --- | --- |
| C[C@@H]1CN(Cc2cccc(OC(F)(F)F)c2)CCN1C(=O)Oc1cncc(C(N)=O)c1 [Form A + B, (R)-5-carbamoylpyridin-3-yl-2-methyl-4-(3-(trifluoromethoxy)benzyl)piperazine-1-carboxylate] | Form A | Form A | – | – | – | – | – | – | – | – | – | – | – | – | – | – | – |
| C[C@@H]1CN(Cc2cccc(OC(F)(F)F)c2)CCN1C(=O)Oc1cncc(C(N)=O)c1 [Form B, (R)-5-carbamoylpyridin-3-yl-2-methyl-4-(3-(trifluoromethoxy)benzyl)piperazine-1-carboxylate] | – | – | 0.12 (≈ 0.274 mM) | 0.08 (≈ 0.182 mM) | Form C | Form C | > 810 | > 365 | > 430 | > 720 | > 830 | > 800 | > 800 | > 730 | > 780 | < 810 | > 560 |
